Broadly, the IC50 is the concentration needed to halve the response being measured. By inhibition is commonly meant the drop in the measured response relative to a control, in per cent. A low value points to little suppression.

Data set [1] relates to angiotensin II. As to the kind of experiment: anaesthetized, normotensive rats, duration of action against angiotensin II after intraduodenal administration. As to conditions: for time to maximum angiotensin antagonistic action: after intraduodenal administration, Example 1 at 3 mg/kg. In kind it is in vivo, rat. As to the method: FIG. 5 depicts the effect of known and prior art intraduodenally administered compounds on angiotensin II induced increases of mean arterial blood pressure in anaesthetized, normotensive rats.
FIGS. 6a) and b) depict the effect of known and prior art intraduodenally administered compounds on antiotensin II induced increases in mean arterial blood pressure in normotensive rats.
The duration of action of the substance was determined in anaesthetized, normotensive rats. Angiotensin II (1 μg.kg) was administered intravenously before substance administration and at 15 minute intervals after intraduodenal substance administration.

Data set [2] relates to angiotensin II. As to the kind of experiment: pithed rats, inhibition of hypertensive action of angiotensin II. It is filed as in vivo, rat. The text has this:
FIGS. 2a), b) and c) depict the effect of the presently claimed and known intravenously administered compounds on angiotensin II induced increases on diastolic blood pressure in pithed rats.
FIGS. 3a), b) and c) depict the effect of known and claimed intraduodenally administered compounds on angiotensin II induced increases of diastolic blood pressure in pithed rats.
FIG. 4 depicts further the effect of known and prior art intraduodenally administered compounds on angiotensin II induced increases of diastolic blood pressure in pithed rats.

Data set [3] deals with angiotensin II-1 subtype receptor. The data set can be described thus: affinity for angiotensin II-1 subtype receptor on rat adrenal cortex microsomes (3H-DuP 753). In kind it is binding. As to conditions: adrenal cortex microsomes of rats. As to the method: The affinity of the substances for the angiotensin II-1 subtype receptor was determined on adrenal cortex microsomes of rats (system: ^3 H-DuP 753).

For data set [4], the system named is angiotensin II receptor. As to conditions: cited from earlier work.
Data set [5] deals with angiotensin II receptor. As to the kind of experiment: isolated rat aorta, inhibition of maximum contraction due to angiotensin II. It is filed as cell-based. The conditions noted are these: for inhibition at 0.1 µM / inhibition at 0.01 µM / inhibition at 0.001 µM: Rattus norvegicus, angiotensin II 3 × 10^-7 mol/l; for inhibition at 0.1 µM: 10^-7 mol/l compound; for inhibition at 0.01 µM: 10^-8 mol/l compound; for inhibition at 0.001 µM: 10^-9 mol/l compound. An excerpt:
FIGS. 1a) and b) depict the action of a compound according to the present invention and a compound of the prior art on the contractile force of an isolated rat aorta.
Isolated rat aorta: % inhibition of the maximum contraction

The mark [6] stands for this setting: anaesthetized normotensive rats, intraduodenal.

As for `CCCCc1nc(Cl)c(CO)n1Cc1ccc(-c2ccccc2-c2nnn[nH]2)cc1` [DuP 753, 2-n-butyl-4-chloro-5-hydroxymethyl-1-((2'-(1H-tetrazol-5-yl)biphenyl-4-yl)methyl)imidazole], in the data set with angiotensin II [1], the “time to maximum angiotensin antagonistic action” value was in the range of 30 to 60 min. Further, the sequence of potency result was “Example 1>DuP 753” in the data set with angiotensin II [1] (setting [6]) and “Example 1>DuP 753>EXP 3174” in the data set with angiotensin II [2] (intraduodenal). Moreover, in the data set on angiotensin II [2], the “type of inhibition of the hypertensive action of angiotensin II” value (“type of inhibition … of angiotensin II” below) is listed as “competitive inhibition, that is to say to a parallel shift to the right of the dose-response curve of angiotensin II without a reduction in the maximum effect”. The same molecule showed an IC50 in data set [3] of 7.24 nM. Also, the “conversion on in vivo administration” value in the data set with angiotensin II receptor [4] (in vivo) is “converted on in vivo administration to a non-competitive metabolite EXP 3174”.
In the data set with angiotensin II receptor [5], `CCCCc1nc(Cl)c(C(=O)O)n1Cc1ccc(-c2ccccc2-c2nnn[nH]2)cc1` [EXP 3174, 2-n-butyl-4-chloro-1-((2'-(1H-tetrazol-5-yl)biphenyl-4-yl)methyl)imidazole-5-carboxylic acid] came in with an inhibition at 0.1 µM of 100%, an inhibition at 0.01 µM of 95% and an inhibition at 0.001 µM of 76%. For the same molecule, the “type of angiotensin II receptor antagonism” value with angiotensin II receptor [5] (isolated rat aorta) was “selective, non-competitive angiotensin II receptor antagonists”. In the data set on angiotensin II receptor [5] (isolated rat aorta, 10^-9 -10^-7 mol/l), the “reduction of the maximum contraction due to angiotensin II (in words)” value is “acting in a comparatively more potent manner”. The “type of inhibition … of angiotensin II” value in the data set on angiotensin II [2] was “in a non-competitive manner”. The sequence of potency result in the data set on angiotensin II [2] (intraduodenal) is listed as “Example 1>DuP 753>EXP 3174”. This molecule also returned an IC50 in data set [3] of 7.87 nM. The “contribution to the duration of action of DuP 753” value with angiotensin II receptor [4] (in vivo) is “responsible to a large extent for the duration of action of DuP 753”. Besides, the type of antagonism entry in the data set with angiotensin II receptor [4] (metabolite of DuP 753) was “non-competitive”.
As for `CCCCc1nc(Cl)c(C(=O)OC(C)OC(=O)OCC)n1Cc1ccc(-c2ccccc2-c2nn[nH]n2)cc1` (stereo not drawn) [Example 1], the “effectiveness relative to 10 mg/kg of DuP 753” value in the data set on angiotensin II [1] (3 mg/kg of Example 1, intraduodenal, anaesthetized normotensive rats) is given as “about twice as effective as 10 mg/kg of DuP 753”. Also, in the data set with angiotensin II [1], the “time to maximum angiotensin antagonistic action” value was 15 min. Besides, the sequence of potency result in the data set on angiotensin II [1] (setting [6]) is reported as “Example 1>DuP 753”. The onset of action entry in the data set with angiotensin II [1] (intraduodenal, normotensive rats) was “particularly rapid, dose-dependent onset of action”. In the data set with angiotensin II receptor [5], this molecule showed an inhibition at 0.1 µM of 98%, an inhibition at 0.01 µM of 72% and an inhibition at 0.001 µM of 63%. Moreover, the “type of angiotensin II receptor antagonism” value in the data set with angiotensin II receptor [5] (isolated rat aorta) is “selective, non-competitive angiotensin II receptor antagonists”. In the data set on angiotensin II [2], the “type of inhibition … of angiotensin II” value was “in a non-competitive manner”. In the data set with angiotensin II [2] (intraduodenal), the “potency after intraduodenal administration” value is “by far the most potent substance” and the sequence of potency entry is “Example 1>DuP 753>EXP 3174”. The “potency relative to EXP 3174” value in the data set on angiotensin II [2] (intravenous, Example 1 0.3-10 mg/kg) is recorded as “about as potent as EXP 3174”. The “potency relative to DuP 753” value with angiotensin II [2] (intravenous, Example 1 0.3-10 mg/kg, DuP 753 1-10 mg/kg) is “slightly more potent than DuP 753”. Half-maximal inhibition in data set [3] (IC50) was put at 79.4 nM.
